From US4602015A, “2-piperazinopyrimidine salt and pharmaceutical compositions containing it” (priority 1983, dated 1986)

Key:
[1] = system: rotational behaviour after unilateral lesion of the striatum; assay: rotational behaviour in mice after unilateral 6-hydroxydopamine lesion of the striatum; assay type: in vivo, Female Charles River CD1 mice; conditions: for Variation % of turns as compared to controls: Table II, mouse, oral, 1 h after administration, doses 0.15 (base), 0.18 (hydrochloride), 0.34 (napsilate) mg/kg = 0.15 mg/kg free base, ** p < 0.01, ns not significant
Text: (§1) The dopaminergic mechanism of the compound of the invention was studied in comparison with the corresponding free base and its hydrochloride by analysing the rotational behaviour in mice after unilateral lesion of the striatum (P. Protais et al., J. Pharmacol. 1976, 7, 251-255).
(§2) Female Charles River CD1 mice weighing 20-24 g were previously subjected to a unilateral lesion of the striatum by stereotaxic injection of 8 mcg/animal of 6-hydroxydopamine. A week later, the 2-(1-piperazinyl)-pyrimidine napsilate, the 2-(1-piperazinyl)pyrimidine hydrochloride and the free base were administered by oral route to groups of six mice at a dose corresponding to 0.15 mg/kg of free base. The number of turns was recorded, during 2 minutes, one hour after the administration of the three products. The turns ipsilateral to the lesion were plotted as positive values, the contralateral turns were plotted as negative values. The algebric sum of turns for each group of treated animals was compared to that of control animals treated with the vehicle (saline) only.

[2] = system: prochlorperazine-induced catalepsy; assay: antagonism of prochlorperazine-induced catalepsy (cork test, oral); assay type: in vivo, Wistar male rats; conditions: rat; for Prochlorperazine Catal. antag. ED50: 1 h before prochlorperazine 10 mg/kg s.c., interval in parentheses printed on next line: napsilate (5.0-6.4), base (12-45)
Experimental: The antidepressive activity of the compound of the invention has been evaluated in the test of antagonism of prochlorperazine-induced catalepsy (K. Biziere et al., Arzneimittel Forschung, 1982, 32 (II), 824-831). The 2-(1-piperazinyl)pyrimidine napsilate and the corresponding free base, as reference compound, were administered orally to groups of 10 Wistar male rats weighing 220-240 g; at the same time control animals were treated with saline. One hour later, prochlorperazine was administered subcutaneously at a dose of 10 mg/kg. Five hours after this administration, the number of cataleptic animals was assessed by the cork test. According to this test the animals were placed with their forepaws on a stand formed by three superposed corks (11 cm total height) and forced to maintain this position for 20 seconds at least. The performances of each group of animals were compared with those of the controls having received the vehicle and prochlorperazine only.

[3] = H. W. Stewart et al., J. Org. Chem. 1953; cited from earlier work
[4] = system: rotational behaviour after unilateral lesion of the striatum; assay: rotational behaviour in lesioned mice, time course 60, 180 and 360 minutes; assay type: in vivo, Female Charles River CD1 mice; conditions: Table III, mouse, oral, dose corresponding to 0.15 mg/kg free base, ** p < 0.01, ns not significant
[5] = system: rotational behaviour after unilateral lesion of the striatum; assay: as above; assay type: in vivo, Female Charles River CD1 mice; conditions: for Variation % of turns after 60 minutes: Table III, mouse, oral, dose corresponding to 0.15 mg/kg free base, ** p < 0.01, ns not significant
Text: as §1, §2
The dopaminergic action of the compound of the present invention has also been evaluated in the time in comparison with the corresponding free base and the hydrochloride thereof.

[6] = psychotropic activity (general statement); assay type: in vivo

Row | SMILES | Variation % of turns as compared to controls [1] [%] | effect on algebric sum of turns (in words) ([1]; comment on Table II) | Prochlorperazine Catal. antag. ED50 [2] [mcmol/kg] | analgesic or antifilarial activity (in words) [3] | Variation % of turns after 180 minutes [4] [%] | Variation % of turns after 360 minutes [4] [%] | Variation % of turns after 60 minutes [5] [%] | activity with time (in words) ([5]; comment on Table III) | dopaminergic activity (in words) ([1]; comment on Table II) | negative variation of turns ([1]; comment on Table II, contralateral turns exceed ipsilateral turns) | oral activity relative to corresponding free base (times more active) ([2]; ratio versus free base) | potency versus reference products (in words) ([5]; comment on Table III, versus free base and hydrochloride) | psychotropic activity (in words) ([6]; dopaminergic mechanism, antipsychotic, antidepressive, tranquillizing-sedative) | activity versus free base and hydrochloride (in words) ([6]; in the absolute sense) | duration of activity (in words) ([6]; in vivo)
1 | c1cnc(N2CCNCC2)nc1 [2-(1-piperazinyl)pyrimidine base, 2-(1-piperazinyl)pyrimidine] | -94 | significantly reduces the algebric sum of turns | 24 | none of which has shown analgesic or antifilarial activity | -62 | -60 | -94 | tends to decrease with the time | – | – | – | – | – | – | –
2 | Cl.c1cnc(N2CCNCC2)nc1 [2-(1-piperazinyl)pyrimidine hydrochloride] | -29 | no significant effect | – | – | -28 | -22 | -29 | inactive with the time too | nearly inactive | – | – | – | – | – | –
3 | c1cnc(N2CCNCC2)nc1 [2-(1-piperazinyl)pyrimidine napsilate, 2-(1-piperazinyl)pyrimidine 2-naphtalenesulfonate] | -117 | – | 5.7 | – | -126 | -147 | -117 | increases significantly with the time | dopaminergic activity higher than that of the free base | higher than 100% | about 4 times | more potent than the reference products | very good psychotropic activity | much more active | long-lasting and increases with time
